Data from PubChem BioAssay AID1963832 (Molecular Pharmacology Branch, DTP, NCI, 2024).

Tested on: 885724-159-R-J1-PDC complex spheroid viability
Experiment: Anticancer human tumor 885724-159-R-J1-PDC patient-derived pancreatic adenocarcinoma cell line growth inhibition [POLQ]
Conditions: for IC50: curve of first compound; for viability, T/C: stronger effect = lower value; active = viability on the fitted dose curve at most 10% of control; inactive = the rest
Method in brief: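 Patient-derived tumour cells were co-cultured with HUVEC and mesenchymal stem cells as multicellular spheroids at 37 °C. They were treated with POLQ inhibitors (novobiocin, ART-558, RP6685) alone or combined with other agents. Top concentrations were at or near clinical Cmax (otherwise 10 microM; SN-38 at 1 microM), decreasing in half-log steps.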

[1] = second compound 0.0316 µM, first compound 0.0316 µM
[2] = second compound 0.0316 µM, first compound 0.1 µM
[3] = second compound 0.0316 µM, first compound 0.316 µM
[4] = second compound 0.0316 µM, first compound 1 µM
[5] = second compound 0.1 µM, first compound 0.0316 µM
[6] = second compound 0.1 µM, first compound 0.1 µM
[7] = second compound 0.1 µM, first compound 0.316 µM
[8] = second compound 0.1 µM, first compound 1 µM
[9] = second compound 0.316 µM, first compound 0.0316 µM
[10] = second compound 0.316 µM, first compound 0.1 µM
[11] = second compound 0.316 µM, first compound 0.316 µM
[12] = second compound 0.316 µM, first compound 1 µM
[13] = second compound 1 µM, first compound 0.0316 µM
[14] = second compound 1 µM, first compound 0.1 µM
[15] = second compound 1 µM, first compound 0.316 µM
[16] = second compound 1 µM, first compound 1 µM
[17] = second compound 3.16 µM, first compound 0.0316 µM
[18] = second compound 3.16 µM, first compound 0.1 µM
[19] = second compound 3.16 µM, first compound 0.316 µM
[20] = second compound 3.16 µM, first compound 1 µM
[21] = second compound 10 µM, first compound 0.0316 µM
[22] = second compound 10 µM, first compound 0.1 µM
[23] = second compound 10 µM, first compound 0.316 µM
[24] = second compound 10 µM, first compound 1 µM
[25] = second compound 0.0316 µM, first compound 3.16 µM
[26] = second compound 0.0316 µM, first compound 10 µM
[27] = second compound 0.1 µM, first compound 3.16 µM
[28] = second compound 0.1 µM, first compound 10 µM
[29] = second compound 0.316 µM, first compound 3.16 µM
[30] = second compound 0.316 µM, first compound 10 µM
[31] = second compound 1 µM, first compound 3.16 µM
[32] = second compound 1 µM, first compound 10 µM
[33] = second compound 3.16 µM, first compound 3.16 µM
[34] = second compound 3.16 µM, first compound 10 µM
[35] = second compound 10 µM, first compound 3.16 µM
[36] = second compound 10 µM, first compound 10 µM
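Note: spheroids exposed to compounds for 7 days.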

C=CCn1c(=O)c2cnc(Nc3ccc(N4CCN(C)CC4)cc3)nc2n1-c1cccc(C(C)(C)O)n1 + Cc1cccc(N(C)C(=O)C2C(O)CCN2c2nc(C)cc(C(F)(F)F)c2C#N)c1
inactive: viability, T/C (second compound 0.0316 µM, first compound 0.00316 µM) 101% | viability, T/C (second compound 0.0316 µM, first compound 0.01 µM) 95.6% | viability, T/C [1] 84.9% | viability, T/C [2] 72.6% | viability, T/C [3] 56.5% | viability, T/C [4] 51.1% | viability, T/C (second compound 0.1 µM, first compound 0.00316 µM) 105% | viability, T/C (second compound 0.1 µM, first compound 0.01 µM) 98% | viability, T/C [5] 93% | viability, T/C [6] 77.2% | viability, T/C [7] 59.9% | viability, T/C [8] 47.2% | viability, T/C (second compound 0.316 µM, first compound 0.00316 µM) 98.6% | viability, T/C (second compound 0.316 µM, first compound 0.01 µM) 97.9% | viability, T/C [9] 93.7% | viability, T/C [10] 73% | viability, T/C [11] 53.3% | viability, T/C [12] 43.6% | viability, T/C (second compound 1 µM, first compound 0.00316 µM) 101% | viability, T/C (second compound 1 µM, first compound 0.01 µM) 93.8% | viability, T/C [13] 88.9% | viability, T/C [14] 70.1% | viability, T/C [15] 55% | viability, T/C [16] 49.4% | viability, T/C (second compound 3.16 µM, first compound 0.00316 µM) 92.2% | viability, T/C (second compound 3.16 µM, first compound 0.01 µM) 96.5% | viability, T/C [17] 94.2% | viability, T/C [18] 77.7% | viability, T/C [19] 61.6% | viability, T/C [20] 50% | viability, T/C (second compound 10 µM, first compound 0.00316 µM) 103% | viability, T/C (second compound 10 µM, first compound 0.01 µM) 84.8% | viability, T/C [21] 98.2% | viability, T/C [22] 82.7% | viability, T/C [23] 61.6% | viability, T/C [24] 47.5%
771 nM: IC50 (second compound 0.1 µM)
856 nM: IC50 (second compound 1 µM)
> 1000 nM: IC50 (second compound 0.0316 µM) | IC50 (second compound 3.16 µM)
435 nM: IC50 (second compound 0.316 µM)
817 nM: IC50 (second compound 10 µM)

CC1COCCN1c1cc(-c2ccnn2C)c2ccnc(-c3ccn[nH]3)c2n1 (stereo unspecified) + Cc1cccc(N(C)C(=O)C2C(O)CCN2c2nc(C)cc(C(F)(F)F)c2C#N)c1
631 nM: IC50 (second compound 0.1 µM)
350 nM: IC50 (second compound 0.0316 µM)
364 nM: IC50 (second compound 0.316 µM)
576 nM: IC50 (second compound 3.16 µM)
441 nM: IC50 (second compound 10 µM)
inactive: viability, T/C [1] 85.6% | viability, T/C [2] 61.2% | viability, T/C [3] 52.3% | viability, T/C [4] 42.6% | viability, T/C [25] 45.5% | viability, T/C [26] 39% | viability, T/C [5] 87% | viability, T/C [6] 66.2% | viability, T/C [7] 54.2% | viability, T/C [8] 47.5% | viability, T/C [27] 44.7% | viability, T/C [28] 36.1% | viability, T/C [9] 89.3% | viability, T/C [10] 61.5% | viability, T/C [11] 51.5% | viability, T/C [12] 47.2% | viability, T/C [29] 40.6% | viability, T/C [30] 41.4% | viability, T/C [13] 82.9% | viability, T/C [14] 65.1% | viability, T/C [15] 50.2% | viability, T/C [16] 47.4% | viability, T/C [31] 41.9% | viability, T/C [32] 38.3% | viability, T/C [17] 77.8% | viability, T/C [18] 63.2% | viability, T/C [19] 51.9% | viability, T/C [20] 47% | viability, T/C [33] 46.5% | viability, T/C [34] 37.8% | viability, T/C [21] 86% | viability, T/C [22] 58.5% | viability, T/C [23] 50.4% | viability, T/C [24] 53.3% | viability, T/C [35] 49.6% | viability, T/C [36] 40.2%
467 nM: IC50 (second compound 1 µM)

CC1COCCN1c1cc(C2(S(C)(=N)=O)CC2)nc(-c2ccnc3[nH]ccc23)n1 (stereo unspecified) + Cc1cccc(N(C)C(=O)C2C(O)CCN2c2nc(C)cc(C(F)(F)F)c2C#N)c1
5330 nM: IC50 (second compound 1 µM)
9040 nM: IC50 (second compound 0.316 µM)
> 10000 nM: IC50 (second compound 0.0316 µM) | IC50 (second compound 0.1 µM) | IC50 (second compound 3.16 µM) | IC50 (second compound 10 µM)
inactive: viability, T/C [1] 105% | viability, T/C [2] 97.3% | viability, T/C [3] 89% | viability, T/C [4] 72% | viability, T/C [25] 58% | viability, T/C [26] 51.7% | viability, T/C [5] 103% | viability, T/C [6] 94.1% | viability, T/C [7] 97.9% | viability, T/C [8] 65.4% | viability, T/C [27] 55.2% | viability, T/C [28] 53.8% | viability, T/C [9] 108% | viability, T/C [10] 102% | viability, T/C [11] 92.5% | viability, T/C [12] 72.9% | viability, T/C [29] 55.9% | viability, T/C [30] 49.7% | viability, T/C [13] 109% | viability, T/C [14] 93.6% | viability, T/C [15] 97% | viability, T/C [16] 71.8% | viability, T/C [31] 52.3% | viability, T/C [32] 47.2% | viability, T/C [17] 98.5% | viability, T/C [18] 95.6% | viability, T/C [19] 92.8% | viability, T/C [20] 73.8% | viability, T/C [33] 51.7% | viability, T/C [34] 51.3% | viability, T/C [21] 92.2% | viability, T/C [22] 97.2% | viability, T/C [23] 91.5% | viability, T/C [24] 68.2% | viability, T/C [35] 56.4% | viability, T/C [36] 50.4%
